# Reference: patent US20140017187A1, “Use of 5-(7-methoxy-3,3-dimethyl-2,3-dihydro-1-benzoxepin-5-yl)-3-methyl-penta-2,4-dienoic acid as a cosmetic” (Merck Patent GmbH, priority 2008, published 2014)
# System: human skin model
# Assay: cDNA microarray gene expression profiling (Affymetrix) of treated skin equivalents, GeneGO MetaCore analysis
# Type: cell-based
# Protocol: One of the advantages of cDNA microarray is the possibility to observe the expression pattern of the whole genes and compare with different conditions. This is the first study to determine the gene expression profiles of Compound-treated human skin. For the analysis of deregulated gene expression induced by substance Compound, treated and control samples from a human skin model were analyzed with Affymetrix oligonucleotide microarrays. Skin has been among the first organs analysed using DNA-Microarrays. In addition, epidermal keratinocytes have been the target of many studies because they respond to a rich variety of inflammatory and immunmodulating cytokines, hormones, vitamins, ultraviolet (UV) light, toxins and physical injury. Altered gene expression after applying substance Compound was analysed with an Affymetrix system.
# For gene expression studies skin equivalents were treated with 50 μL of 2 relevant substance Compound with a concentration of c=50 μM in PBS-buffer/DMSO. Buffer-treated skin equivalents served as controls.
# A ratio (log 2) value of zero indicates no regulation, whereas positive (log 2) values indicate an upregulation and negative (log 2) values a downregulation of the relevant gene.
# The experiment contains 759 genes with the specified threshold (Appendix A)
# GeneGO's Metacore (Pathways and Maps) Software.
# Enrichment analysis consists of matching gene IDs for the common, similar and unique sets of the uploaded files with gene IDs in functional ontologies in MetaCore. The ontologies include canonical pathway maps, GeneGo cellular processes, GO cellular processes and diseases categories. The degree of “relevance” to different categories for the uploaded datasets is defined by p-values, so that the lower p-value gets higher priority.
# [1] = cDNA microarray, skin equivalents, 50 μM
structure (smiles),measurement,setting,value
"COc1ccc2c(c1)C(/C=C/C(C)=C/C(=O)O)=CC(C)(C)CO2 [Compound, 5-(7-methoxy-3,3-dimethyl-2,3-dihydro-1-benzoxepin-5-yl)-3-methyl-penta-2,4-dienoic acid]","Ratio as Log2 value, gene CASP14","Caspase 14 precursor, skin equivalents, 50 μM, vs buffer-treated control",1.44 Log2
same,"Ratio as Log2 value, gene UGCG","Ceramide glucosyltransferase, skin equivalents, 50 μM, vs buffer-treated control",0.7977 Log2
same,"Ratio as Log2 value, gene CDSN","Corneodesmosin precursor, skin equivalents, 50 μM, vs buffer-treated control",1.207 Log2
same,"Ratio as Log2 value, gene ELF3","ETS-related transcription factor Elf-3, skin equivalents, 50 μM, vs buffer-treated control",−1.46 Log2
same,"Ratio as Log2 value, gene EMP1","Epithelial membrane protein 1, skin equivalents, 50 μM, vs buffer-treated control",1.278 Log2
same,"Ratio as Log2 value, gene KRT34","Keratin, type I cuticular Ha4, skin equivalents, 50 μM, vs buffer-treated control",1.695 Log2
same,"Ratio as Log2 value, gene KRT10","Keratin, type I cytoskeletal 10, skin equivalents, 50 μM, vs buffer-treated control",−0.6644 Log2
same,"Ratio as Log2 value, gene KRT13","Keratin, type I cytoskeletal 13, skin equivalents, 50 μM, vs buffer-treated control",−0.8963 Log2
same,"Ratio as Log2 value, gene LAMA3","Laminin subunit alpha-3 precursor, skin equivalents, 50 μM, vs buffer-treated control",0.6648 Log2
same,"Ratio as Log2 value, gene LAMB3","Laminin subunit beta-3 precursor, skin equivalents, 50 μM, vs buffer-treated control",1.168 Log2
same,"Ratio as Log2 value, gene LCE2B","Late cornified envelope protein 2B, skin equivalents, 50 μM, vs buffer-treated control",1.326 Log2
same,"Ratio as Log2 value, gene PTHLH","Parathyroid hormone-related protein, skin equivalents, 50 μM, vs buffer-treated control",−0.7916 Log2
same,"Ratio as Log2 value, gene S100a7","Protein S100-A7, skin equivalents, 50 μM, vs buffer-treated control",−0.6784 Log2
same,"Ratio as Log2 value, gene OVOL1","Putative transcription factor Ovo-like 1, skin equivalents, 50 μM, vs buffer-treated control",1.064 Log2
same,expression of FABP4 and Leptin,cDNA microarray data,significantly upregulated
same,"expression of Caspase 14, P57/KIP2",[1],significantly upregulated
same,"expression of Fibronectin, Elastin and Laminin",[1],upregulated significantly
same,expression of HAS2 gene (hyaluronan synthase 2),[1],upregulated
same,"expression of IL-6, TNF-alpha induced proteins, IL-8, CCL8, CCL2, CXCL2, CXCL12, CXCL3, CXCL5 and ICAM-1",[1],significantly downregulated
same,"expression of MMP genes MMP9, MMP14, MMP11",[1],down regulated
same,expression of RXRA (retinoid X receptors A),[1],upregulation
same,"expression of S100A7, S100A7A and S100A12",[1],downregulated
same,"expression of SCARB, INSIG2, ATP binding cassette and VLDLR genes",[1],upregulation
same,"Compound vs. Control, ratio Log(2) value","gene ABCG1 (ABCG1_HUMAN, ATP-binding cassette sub-family G member 1)",1.297 Log(2)
same,"Compound vs. Control, ratio Log(2) value","gene CASP14 (CASPE_HUMAN, Caspase-14 precursor)",1.44 Log(2)
same,"Compound vs. Control, ratio Log(2) value","gene CCL2 (CCL2_HUMAN, C-C motif chemokine 2 precursor)",−1.731 Log(2)
same,"Compound vs. Control, ratio Log(2) value","gene CCL8 (CCL8_HUMAN, C-C motif chemokine 8 precursor)",−2.505 Log(2)
same,"Compound vs. Control, ratio Log(2) value","gene CDKN1C (CDN1C_HUMAN, Cyclin-dependent kinase inhibitor 1C)",0.8737 Log(2)
same,"Compound vs. Control, ratio Log(2) value","gene CERK (CERK1_HUMAN, Ceramide kinase)",0.729 Log(2)
same,"Compound vs. Control, ratio Log(2) value","gene CLDN17 (CLD17_HUMAN, Claudin-17)",2.19 Log(2)
same,"Compound vs. Control, ratio Log(2) value","gene COL4A3BP (C43BP_HUMAN, Collagen type IV alpha-3-binding protein)",1.233 Log(2)
same,"Compound vs. Control, ratio Log(2) value","gene CXCL2 (MIP2A_HUMAN, Macrophage inflammatory protein 2-alpha precursor)",−1.267 Log(2)
same,"Compound vs. Control, ratio Log(2) value","gene CXCL3 (MIP2B_HUMAN, Macrophage inflammatory protein 2-beta precursor)",−0.723 Log(2)
same,"Compound vs. Control, ratio Log(2) value","gene CXCL5 (CXCL5_HUMAN, C-X-C motif chemokine 5 precursor)",−0.8263 Log(2)
same,"Compound vs. Control, ratio Log(2) value","gene CXCL12 (SDF1_HUMAN, Stromal cell-derived factor 1 precursor)",−0.8377 Log(2)
same,"Compound vs. Control, ratio Log(2) value","gene EGFR (EGFR_HUMAN, Epidermal growth factor receptor precursor)",0.9876 Log(2)
same,"Compound vs. Control, ratio Log(2) value","gene ELF3 (ELF3_HUMAN, ETS-related transcription factor Elf-3)",−1.46 Log(2)
same,"Compound vs. Control, ratio Log(2) value","gene ELN (ELN_HUMAN, Elastin precursor)",0.7751 Log(2)
same,"Compound vs. Control, ratio Log(2) value","gene EMP1 (EMP1_HUMAN, Epithelial membrane protein 1)",1.278 Log(2)
same,"Compound vs. Control, ratio Log(2) value","gene EMR2 (EMR2_HUMAN, EGF-like module-containing mucin-like hormone receptor-like 2 precursor)",1.286 Log(2)
same,"Compound vs. Control, ratio Log(2) value","gene FABP4 (FABPA_HUMAN, Fatty acid-binding protein, adipocyte)",2.125 Log(2)
same,"Compound vs. Control, ratio Log(2) value","gene FGF11 (FGF11_HUMAN, Fibroblast growth factor 11)",0.9322 Log(2)
same,"Compound vs. Control, ratio Log(2) value","gene FLNB (FLNB_HUMAN, Filamin-B)",0.6681 Log(2)
same,"Compound vs. Control, ratio Log(2) value","gene FN1 (FINC_HUMAN, Fibronectin precursor)",1.364 Log(2)
same,"Compound vs. Control, ratio Log(2) value","gene GPC4 (GPC4_HUMAN, Glypican-4 precursor)",0.7558 Log(2)
same,"Compound vs. Control, ratio Log(2) value","gene GPC6 (GPC6_HUMAN, Glypican-6 precursor)",0.6711 Log(2)
same,"Compound vs. Control, ratio Log(2) value","gene GPX7 (GPX7_HUMAN, Glutathione peroxidase 7 precursor)",0.8162 Log(2)
same,"Compound vs. Control, ratio Log(2) value","gene HAS2 (HAS2_HUMAN, Hyaluronan synthase 2)",0.8154 Log(2)
same,"Compound vs. Control, ratio Log(2) value","gene ICAM1 (ICAM1_HUMAN, Intercellular adhesion molecule 1 precursor)",−1.612 Log(2)
same,"Compound vs. Control, ratio Log(2) value","gene IL6 (IL6_HUMAN, Interleukin-6 precursor)",−1.09 Log(2)
same,"Compound vs. Control, ratio Log(2) value","gene IL6ST (IL6RB_HUMAN, Interleukin-6 receptor subunit beta precursor)",−1.628 Log(2)
same,"Compound vs. Control, ratio Log(2) value","gene IL8 (IL8_HUMAN, Interleukin-8 precursor)",−0.6883 Log(2)
same,"Compound vs. Control, ratio Log(2) value","gene INSIG2 (INSI2_HUMAN, Insulin-induced gene 2 protein)",0.6645 Log(2)
same,"Compound vs. Control, ratio Log(2) value","gene ITGB5 (ITB5_HUMAN, Integrin beta-5 precursor)",0.7305 Log(2)
same,"Compound vs. Control, ratio Log(2) value","gene ITIH5 (ITIH5_80760, inter-alpha (globulin) inhibitor H5)",1.192 Log(2)
same,"Compound vs. Control, ratio Log(2) value","gene LAMA3 (LAMA3_HUMAN, Laminin subunit alpha-3 precursor)",0.6648 Log(2)
same,"Compound vs. Control, ratio Log(2) value","gene LAMB3 (LAMB3_HUMAN, Laminin subunit beta-3 precursor)",1.168 Log(2)
same,"Compound vs. Control, ratio Log(2) value","gene LAMC1 (LAMC1_HUMAN, Laminin subunit gamma-1 precursor)",0.7744 Log(2)
same,"Compound vs. Control, ratio Log(2) value","gene LEP (LEP_HUMAN, Leptin precursor)",3.891 Log(2)
same,"Compound vs. Control, ratio Log(2) value","gene LEPR (LEPR_HUMAN, Leptin receptor precursor)",0.7216 Log(2)
same,"Compound vs. Control, ratio Log(2) value","gene MMP9 (MMP9_HUMAN, Matrix metalloproteinase-9 precursor)",−0.8347 Log(2)
same,"Compound vs. Control, ratio Log(2) value","gene MMP11 (MMP11_HUMAN, Stromelysin-3 precursor)",−1.085 Log(2)
same,"Compound vs. Control, ratio Log(2) value","gene MMP14 (MMP14_HUMAN, Matrix metalloproteinase-14 precursor)",−0.6909 Log(2)
same,"Compound vs. Control, ratio Log(2) value","gene PLOD2 (PLOD2_HUMAN, Procollagen-lysine,2-oxoglutarate 5-dioxygenase 2 precursor)",1.455 Log(2)
same,"Compound vs. Control, ratio Log(2) value","gene RXRA (RXRA_HUMAN, Retinoic acid receptor RXR-alpha)",0.7793 Log(2)
same,"Compound vs. Control, ratio Log(2) value","gene S100A7 (S10A7_HUMAN, Protein S100-A7)",−0.6784 Log(2)
same,"Compound vs. Control, ratio Log(2) value","gene S100A7A (S1A7A_HUMAN, Protein S100-A7A)",−2.659 Log(2)
same,"Compound vs. Control, ratio Log(2) value","gene S100A12 (S10AC_HUMAN, Protein S100-A12)",−0.7202 Log(2)
same,"Compound vs. Control, ratio Log(2) value","gene SCARB1 (SCRB1_HUMAN, Scavenger receptor class B member 1)",0.8349 Log(2)
same,"Compound vs. Control, ratio Log(2) value","gene TGFA (TGFA_HUMAN, Protransforming growth factor alpha precursor)",0.8031 Log(2)
same,"Compound vs. Control, ratio Log(2) value","gene UGCG (CEGT_HUMAN, Ceramide glucosyltransferase)",0.7977 Log(2)
same,"Compound vs. Control, ratio Log(2) value","gene VLDLR (VLDLR_HUMAN, Very low-density lipoprotein receptor precursor)",0.9666 Log(2)
same,effect on GPC6 and S100A7 genes compared with old skin,"old skin (literature): S100A7 upregulated, GPC6 downregulated",opposite effect
